Patent publication US6352958B1, “Cycloimido-substituted benzofused heterocyclic herbicides” (FMC Corporation, priority 1997, dated 2002)

Columns and labels:
Assay type in all cases: in vivo
[1] = tested on: common cocklebur (Xanthium strumarium L.); experiment: Preemergence herbicidal activity, cocklebur; conditions: Rate of Application 0.3 Kg/Ha, examined after 12-17 days
Experimental: (§1) The benzofused heterocyclic compounds of this invention were tested for pre- and postemergence herbicidal activity using a variety of crops and weeds. The test plants included soybean (Glycine max var. Winchester), field corn (Zea mays var. Pioneer 3732), wheat (Triticum aestivum var. Lew), morningglory (Ipomea lacunosa or Ipomea hederacea), velvetleaf (Abutilon theophrasti), green foxtail (Setaria viridis), Johnsongrass (Sorghum halepense), blackgrass (Aloepecurus myosuroides), common chickweed (Stellaria media), and common cocklebur (Xanthium strumarium L.).
(§2) For preemergence testing, two disposable fiber flats (8 cm×15 cm×25 cm) for each rate of application of each candidate herbicide were filled to an approximate depth of 6.5 cm with steam-sterilized sandy loam soil. The soil was leveled and impressed with a template to provide five evenly spaced furrows 13 cm long and 0.5 cm deep in each flat. Seeds of soybean, wheat, corn, green foxtail, and johnsongrass were planted in the furrows of the first flat, and seeds of velvetleaf, morningglory, common chickweed, cocklebur, and blackgrass were planted in the furrows of the second flat. The five-row template was employed to firmly press the seeds into place. A topping soil of equal portions of sand and sandy loam soil was placed uniformly on top of each flat to a depth of approximately 0.5 cm. Flats for postemergence testing were prepared in the same manner except that they were planted 9-14 days prior to the preemergence flats and were placed in a greenhouse and watered, thus allowing the seeds to germinate and the foliage to develop.
(§3) In both pre- and postemergence tests, a stock solution of the candidate herbicide was prepared by dissolving 0.27 g of the compound in 20 mL of water/acetone (50/50) containing 0.5% v/v sorbitan monolaurate. For an application rate of 3000 g/ha of herbicide a 10 mL portion of the stock solution was diluted with water/acetone (50/50) to 45 mL.
(§4) The preemergence flats were initially subjected to a light water spray. The four flats were placed two by two along a conveyor belt (i.e., the two preemergence followed by the two postemergence flats). The conveyor belt fed under a spray nozzle mounted about ten inches above the post-emergent foliage. The preemergent flats were elevated on the belt so that the soil surface was at the same level below the spray nozzle as the foliage canopy of the postemergent plants. The spray of herbicidal solution was commenced and once stabilized, the flats were passed under the spray at a speed to receive a coverage equivalent of 100 L/ha. At this coverage the application rates are those shown in the above table for the individual herbicidal solutions. The preemergence flats were watered immediately thereafter, placed in the greenhouse and watered regularly at the soil surface. The postemergence flats were immediately placed in the green-house and not watered until 24 hours after treatment with the test solution. Thereafter they were regularly watered at ground level. After 12-17 days the plants were examined and the phytotoxicity data were recorded.
(§5) Phytotoxicity data were taken as percent control. Percent control was determined by a method similar to the 0 to 100 rating system disclosed in “Research Methods in Weed Science,” 2nd ed., B. Truelove, Ed.; Southern Weed Science Society; Auburn University, Auburn, Ala., 1977.

[2] = tested on: field corn (Zea mays var. Pioneer 3732); experiment: Postemergence herbicidal activity, corn; conditions: rate of application 0.3 Kg/Ha, rated after 12-17 days
Experimental: as §1, §2, §3, §4, §5

[3] = tested on: wheat (Triticum aestivum var. Lew); experiment: Postemergence herbicidal activity, wheat; conditions: rate of application 0.3 Kg/Ha, rated after 12-17 days
Experimental: as §1, §2, §3, §4, §5

[4] = tested on: common chickweed (Stellaria media); experiment: Preemergence herbicidal activity, chickweed; conditions: Rate of Application 0.3 Kg/Ha, examined after 12-17 days
Experimental: as §1, §2, §3, §4, §5

[5] = tested on: velvetleaf (Abutilon theophrasti); experiment: Preemergence herbicidal activity, velvetleaf; conditions: Rate of Application 0.3 Kg/Ha, examined after 12-17 days
Experimental: as §1, §2, §3, §4, §5

[6] = tested on: common chickweed (Stellaria media); experiment: Postemergence herbicidal activity, chickweed; conditions: rate of application 0.3 Kg/Ha, rated after 12-17 days
Experimental: as §1, §2, §3, §4, §5

[7] = tested on: wheat (Triticum aestivum var. Lew); experiment: Preemergence herbicidal activity, wheat; conditions: Rate of Application 0.3 Kg/Ha, examined after 12-17 days
Experimental: as §1, §2, §3, §4, §5

[8] = tested on: soybean (Glycine max var. Winchester); experiment: Preemergence herbicidal activity, soybean; conditions: Rate of Application 0.3 Kg/Ha, examined after 12-17 days
Experimental: as §1, §2, §3, §4, §5

[9] = tested on: Johnsongrass (Sorghum halepense); experiment: Preemergence herbicidal activity, johnsongrass; conditions: Rate of Application 0.3 Kg/Ha, examined after 12-17 days
Experimental: as §1, §2, §3, §4, §5

[10] = tested on: velvetleaf (Abutilon theophrasti); experiment: Postemergence herbicidal activity, velvetleaf; conditions: rate of application 0.3 Kg/Ha, rated after 12-17 days
Experimental: as §1, §2, §3, §4, §5

[11] = tested on: green foxtail (Setaria viridis); experiment: Preemergence herbicidal activity, green foxtail; conditions: Rate of Application 0.3 Kg/Ha, examined after 12-17 days
Experimental: as §1, §2, §3, §4, §5

[12] = tested on: Johnsongrass (Sorghum halepense); experiment: Postemergence herbicidal activity, johnsongrass; conditions: rate of application 0.3 Kg/Ha, rated after 12-17 days
Experimental: as §1, §2, §3, §4, §5

[13] = tested on: morningglory (Ipomea lacunosa or Ipomea hederacea); experiment: Postemergence herbicidal activity, morningglory; conditions: rate of application 0.3 Kg/Ha, rated after 12-17 days
Experimental: as §1, §2, §3, §4, §5

[14] = tested on: morningglory (Ipomea lacunosa or Ipomea hederacea); experiment: Preemergence herbicidal activity, morningglory; conditions: Rate of Application 0.3 Kg/Ha, examined after 12-17 days
Experimental: as §1, §2, §3, §4, §5

[15] = tested on: field corn (Zea mays var. Pioneer 3732); experiment: Preemergence herbicidal activity, corn; conditions: Rate of Application 0.3 Kg/Ha, examined after 12-17 days
Experimental: as §1, §2, §3, §4, §5

[16] = tested on: green foxtail (Setaria viridis); experiment: Postemergence herbicidal activity, green foxtail; conditions: rate of application 0.3 Kg/Ha, rated after 12-17 days
Experimental: as §1, §2, §3, §4, §5

[17] = tested on: common cocklebur (Xanthium strumarium L.); experiment: Postemergence herbicidal activity, cocklebur; conditions: rate of application 0.3 Kg/Ha, rated after 12-17 days
Experimental: as §1, §2, §3, §4, §5

[18] = tested on: soybean (Glycine max var. Winchester); experiment: Postemergence herbicidal activity, soybean; conditions: rate of application 0.3 Kg/Ha, rated after 12-17 days
Experimental: as §1, §2, §3, §4, §5

[19] = tested on: blackgrass (Aloepecurus myosuroides); experiment: Preemergence herbicidal activity, blackgrass; conditions: Rate of Application 0.3 Kg/Ha, examined after 12-17 days
Experimental: as §1, §2, §3, §4, §5

Compound | PREEMERGENCE HERBICIDAL ACTIVITY (% CONTROL) XANPE [1] [%] | Postemergence herbicidal activity (% control) CRN [2] [%] | Postemergence herbicidal activity (% control) WHT [3] [%] | PREEMERGENCE HERBICIDAL ACTIVITY (% CONTROL) STEME [4] [%] | PREEMERGENCE HERBICIDAL ACTIVITY (% CONTROL) ABUTH [5] [%] | Postemergence herbicidal activity (% control) STEME [6] [%] | PREEMERGENCE HERBICIDAL ACTIVITY (% CONTROL) WHT [7] [%] | PREEMERGENCE HERBICIDAL ACTIVITY (% CONTROL) SOY [8] [%] | PREEMERGENCE HERBICIDAL ACTIVITY (% CONTROL) SORHA [9] [%] | Postemergence herbicidal activity (% control) ABUTH [10] [%] | PREEMERGENCE HERBICIDAL ACTIVITY (% CONTROL) SETVI [11] [%] | Postemergence herbicidal activity (% control) SORHA [12] [%] | Postemergence herbicidal activity (% control) IPOSS [13] [%] | PREEMERGENCE HERBICIDAL ACTIVITY (% CONTROL) IPOSS [14] [%] | PREEMERGENCE HERBICIDAL ACTIVITY (% CONTROL) CRN [15] [%] | Postemergence herbicidal activity (% control) SETVI [16] [%] | Postemergence herbicidal activity (% control) XANPE [17] [%] | Postemergence herbicidal activity (% control) SOY [18] [%] | PREEMERGENCE HERBICIDAL ACTIVITY (% CONTROL) ALOMY [19] [%]
Cn1c(C(F)(F)F)cc(=O)n(-c2ccc(Cl)c3cc(C(C)(C)O)oc23)c1=O [Compound 241] | 100 | 70 | 60 | 100 | 100 | 85 | 70 | 60 | 100 | 100 | 100 | 70 | 100 | 100 | 95 | 100 | 95 | 90 | 
CC(O)Cc1cc2c(Cl)cc(F)c(-n3c(=O)cc(C(F)(F)F)n(C)c3=O)c2o1 (stereo not drawn) [Compound 243] | 100 | 95 | 70 | 100 | 100 | 100 | 80 | 100 | 100 | 100 | 100 | 100 | 100 | 100 | 95 | 100 | 100 | 95 | 
Cn1c(C(F)(F)F)cc(=O)n(-c2c(F)cc(Cl)c3cc(C(C)(C)NS(C)(=O)=O)oc23)c1=O [Compound 255] | 100 | 100 | 100 | 100 | 100 | 100 | 90 | 100 | 100 | 100 | 100 | 100 | 100 | 100 | 95 | 100 | 100 | 100 | 
Cn1c(C(F)(F)F)cc(=O)n(-c2ccc(Cl)c3cc(C=O)oc23)c1=O [Compound 265] | 70 | 60 | 40 | 20 | 90 | 30 | 40 | 70 | 60 | 100 | 80 | 20 | 100 | 100 | 80 | 40 | 20 | 70 | 
Cn1c(C(F)(F)F)cc(=O)n(-c2ccc(Cl)c3cc(C(=O)O)oc23)c1=O [Compound 266] | 0 | 60 | 40 | 0 | 40 | 10 | 30 | 50 | 30 | 50 | 30 | 40 | 60 | 70 | 60 | 40 | 10 | 60 | 
Cn1c(C(F)(F)F)cc(=O)n(-c2ccc(Cl)c3cc(C(N)=O)oc23)c1=O [Compound 269] | 100 | 70 | 40 | 100 | 100 | 80 | 30 | 60 | 75 | 100 | 100 | 60 | 80 | 100 | 80 | 70 |  | 90 | 70
CN(C)C(=O)c1cc2c(Cl)ccc(-n3c(=O)cc(C(F)(F)F)n(C)c3=O)c2o1 [Compound 271] | 100 | 60 | 40 | 100 | 100 | 100 | 70 | 80 | 90 | 100 | 100 | 50 | 100 | 100 | 90 | 70 |  | 80 | 80
